Laboratory results as given in PubChem BioAssay (NCI).
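Cultured in 96-well plates, cells were exposed to test compound for 48 hours across five concentrations. The concentration for 50% growth inhibition is given as GI50. Definition used: TGI = concentration required for complete inhibition of growth.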

Tests used:
Assay in all cases: inhibition of tumour cell growth, NCI panel, 48 h
786-0 renal = tested on: 786-0 renal
A498 renal = tested on: A498 renal
A549 NSCLC = tested on: A549 NSCLC
ACHN renal = tested on: ACHN renal
BT-549 breast = tested on: BT-549 breast
CAKI-1 renal = tested on: CAKI-1 renal
CCRF-CEM leukemia = tested on: CCRF-CEM leukemia
COLO 205 colon = tested on: COLO 205 colon
DU-145 prostate = tested on: DU-145 prostate
EKVX NSCLC = tested on: EKVX NSCLC
HCC-2998 colon = tested on: HCC-2998 colon
HCT-116 colon = tested on: HCT-116 colon
HCT-15 colon = tested on: HCT-15 colon
HL-60(TB) leukemia = tested on: HL-60(TB) leukemia
HOP-62 NSCLC = tested on: HOP-62 NSCLC
HOP-92 NSCLC = tested on: HOP-92 NSCLC
HS 578T breast = tested on: HS 578T breast
HT29 colon = tested on: HT29 colon
IGROV1 ovarian = tested on: IGROV1 ovarian
K-562 leukemia = tested on: K-562 leukemia
KM12 colon = tested on: KM12 colon
LOX IMVI melanoma = tested on: LOX IMVI melanoma
M14 melanoma = tested on: M14 melanoma
MALME-3M melanoma = tested on: MALME-3M melanoma
MCF7 breast = tested on: MCF7 breast
MDA-MB-231 breast = tested on: MDA-MB-231 breast
MDA-MB-435 = tested on: MDA-MB-435
MDA-MB-468 breast = tested on: MDA-MB-468 breast
MOLT-4 leukemia = tested on: MOLT-4 leukemia
NCI-H226 lung = tested on: NCI-H226 lung
NCI-H23 lung = tested on: NCI-H23 lung
NCI-H460 lung = tested on: NCI-H460 lung
NCI-H522 lung = tested on: NCI-H522 lung
NCI/ADR-RES ovarian = tested on: NCI/ADR-RES ovarian
OVCAR-3 ovarian = tested on: OVCAR-3 ovarian
OVCAR-4 ovarian = tested on: OVCAR-4 ovarian
OVCAR-5 ovarian = tested on: OVCAR-5 ovarian
OVCAR-8 ovarian = tested on: OVCAR-8 ovarian
PC-3 prostate = tested on: PC-3 prostate
RPMI-8226 leukemia = tested on: RPMI-8226 leukemia
RXF 393 renal = tested on: RXF 393 renal
SF-268 CNS = tested on: SF-268 CNS
SF-295 CNS = tested on: SF-295 CNS
SF-539 CNS = tested on: SF-539 CNS
SK-MEL-2 melanoma = tested on: SK-MEL-2 melanoma
SK-MEL-28 melanoma = tested on: SK-MEL-28 melanoma
SK-MEL-5 melanoma = tested on: SK-MEL-5 melanoma
SK-OV-3 ovarian = tested on: SK-OV-3 ovarian
SN12C renal = tested on: SN12C renal
SNB-19 CNS = tested on: SNB-19 CNS
SNB-75 CNS = tested on: SNB-75 CNS
SR leukemia = tested on: SR leukemia
SW-620 colon = tested on: SW-620 colon
T-47D breast = tested on: T-47D breast
TK-10 renal = tested on: TK-10 renal
U251 CNS = tested on: U251 CNS
UACC-257 melanoma = tested on: UACC-257 melanoma
UACC-62 melanoma = tested on: UACC-62 melanoma
UO-31 renal = tested on: UO-31 renal

SMILES: CS(=O)(=O)Nc1cc(-c2ccc3ncnc(N4CCc5cc(F)c(Cl)cc54)c3c2)cnc1Cl
- GI50 (786-0 renal): 1640 nM
- TGI (786-0 renal): 27000 nM
- GI50 (A498 renal): 640 nM
- TGI (A498 renal): 3540 nM
- GI50 (A549 NSCLC): 1640 nM
- TGI (A549 NSCLC): 8670 nM
- GI50 (ACHN renal): 1660 nM
- TGI (ACHN renal): > 100000 nM
- GI50 (BT-549 breast): 1480 nM
- TGI (BT-549 breast): 5110 nM
- GI50 (CAKI-1 renal): 748 nM
- TGI (CAKI-1 renal): 7320 nM
- GI50 (CCRF-CEM leukemia): 1840 nM
- TGI (CCRF-CEM leukemia): > 100000 nM
- GI50 (COLO 205 colon): 1610 nM
- TGI (COLO 205 colon): 9610 nM
- GI50 (DU-145 prostate): 1670 nM
- TGI (DU-145 prostate): 19500 nM
- GI50 (EKVX NSCLC): 559 nM
- TGI (EKVX NSCLC): 3630 nM
- GI50 (HCC-2998 colon): 1240 nM
- TGI (HCC-2998 colon): 8360 nM
- GI50 (HCT-116 colon): 3490 nM
- TGI (HCT-116 colon): 17400 nM
- GI50 (HCT-15 colon): 1000 nM
- TGI (HCT-15 colon): 11400 nM
- GI50 (HL-60(TB) leukemia): 484 nM
- TGI (HL-60(TB) leukemia): 15100 nM
- GI50 (HOP-62 NSCLC): 704 nM
- TGI (HOP-62 NSCLC): 7360 nM
- GI50 (HOP-92 NSCLC): 595 nM
- TGI (HOP-92 NSCLC): 6680 nM
- GI50 (HS 578T breast): 166 nM
- TGI (HS 578T breast): 1130 nM
- GI50 (HT29 colon): 1480 nM
- TGI (HT29 colon): 16800 nM
- GI50 (IGROV1 ovarian): 194 nM
- TGI (IGROV1 ovarian): 979 nM
- GI50 (K-562 leukemia): 5370 nM
- TGI (K-562 leukemia): 68800 nM
- GI50 (KM12 colon): 3020 nM
- TGI (KM12 colon): 18500 nM
- GI50 (LOX IMVI melanoma): 1050 nM
- TGI (LOX IMVI melanoma): 4090 nM
- GI50 (M14 melanoma): 1480 nM
- TGI (M14 melanoma): 14700 nM
- GI50 (MALME-3M melanoma): 174 nM
- TGI (MALME-3M melanoma): 1550 nM
- GI50 (MCF7 breast): 255 nM
- TGI (MCF7 breast): 11600 nM
- GI50 (MDA-MB-231 breast): 1510 nM
- TGI (MDA-MB-231 breast): 4290 nM
- GI50 (MDA-MB-435): 1720 nM
- TGI (MDA-MB-435): 13000 nM
- GI50 (MDA-MB-468 breast): 211 nM
- TGI (MDA-MB-468 breast): 1380 nM
- GI50 (MOLT-4 leukemia): 1060 nM
- TGI (MOLT-4 leukemia): 5000 nM
- GI50 (NCI-H226 lung): 672 nM
- TGI (NCI-H226 lung): 7430 nM
- GI50 (NCI-H23 lung): 1630 nM
- TGI (NCI-H23 lung): 9940 nM
- GI50 (NCI-H460 lung): 922 nM
- TGI (NCI-H460 lung): 13100 nM
- GI50 (NCI-H522 lung): 1620 nM
- TGI (NCI-H522 lung): 14300 nM
- GI50 (NCI/ADR-RES ovarian): 1950 nM
- TGI (NCI/ADR-RES ovarian): 15300 nM
- GI50 (OVCAR-3 ovarian): 830 nM
- TGI (OVCAR-3 ovarian): 4560 nM
- GI50 (OVCAR-4 ovarian): 2350 nM
- TGI (OVCAR-4 ovarian): 21100 nM
- GI50 (OVCAR-5 ovarian): 1870 nM
- TGI (OVCAR-5 ovarian): 23500 nM
- GI50 (OVCAR-8 ovarian): 1870 nM
- TGI (OVCAR-8 ovarian): 20500 nM
- GI50 (PC-3 prostate): 1030 nM
- TGI (PC-3 prostate): 21000 nM
- GI50 (RPMI-8226 leukemia): 1840 nM
- TGI (RPMI-8226 leukemia): > 100000 nM
- GI50 (RXF 393 renal): 577 nM
- TGI (RXF 393 renal): 3170 nM
- GI50 (SF-268 CNS): 1650 nM
- TGI (SF-268 CNS): 47900 nM
- GI50 (SF-295 CNS): 1060 nM
- TGI (SF-295 CNS): 5280 nM
- GI50 (SF-539 CNS): 1560 nM
- TGI (SF-539 CNS): 6730 nM
- GI50 (SK-MEL-2 melanoma): 1730 nM
- TGI (SK-MEL-2 melanoma): 5800 nM
- GI50 (SK-MEL-28 melanoma): 1320 nM
- TGI (SK-MEL-28 melanoma): 13400 nM
- GI50 (SK-MEL-5 melanoma): 850 nM
- TGI (SK-MEL-5 melanoma): 2610 nM
- GI50 (SK-OV-3 ovarian): 444 nM
- TGI (SK-OV-3 ovarian): 2840 nM
- GI50 (SN12C renal): 1680 nM
- TGI (SN12C renal): 36500 nM
- GI50 (SNB-19 CNS): 1640 nM
- TGI (SNB-19 CNS): 13400 nM
- GI50 (SNB-75 CNS): 254 nM
- TGI (SNB-75 CNS): 3000 nM
- GI50 (SR leukemia): 1520 nM
- TGI (SR leukemia): 12900 nM
- GI50 (SW-620 colon): 2510 nM
- TGI (SW-620 colon): 17400 nM
- GI50 (T-47D breast): 141 nM
- TGI (T-47D breast): 963 nM
- GI50 (TK-10 renal): 644 nM
- TGI (TK-10 renal): 9620 nM
- GI50 (U251 CNS): 2360 nM
- TGI (U251 CNS): 17500 nM
- GI50 (UACC-257 melanoma): 1390 nM
- TGI (UACC-257 melanoma): 11000 nM
- GI50 (UACC-62 melanoma): 382 nM
- TGI (UACC-62 melanoma): 2570 nM
- GI50 (UO-31 renal): 252 nM
- TGI (UO-31 renal): 4050 nM
